Laboratory results from patent US20020039780A1, “Salicyclic acid inducible genes and promoters” (priority 1998, published 2002).

Legend:
Assay type in all cases: cell-based
C6-2 = assay: Northern analysis of mRNA accumulation in cultured tobacco cells; details: 0.1 and 1 mM, approximately 2.5 h
Description: (§1) FIG. 2. Time course of SA-induced gene expression. Northern analysis of representative differential display genes following treatment of cultured tobacco cells with SA for the indicated time (in hours, except lanes 2-4, which refer to 10, 20, and 30 min.). Twenty micrograms of total RNA was loaded per lane. Blots were hybridized with ddPCR fragments indicated at right or with the β-ATPase gene as a loading control probe. Autoradiogram exposure times were optimized for each gene. The signal for C18-1 was enhanced by using the full length cDNA as probe. Labels on left indicate response class.
(§2) FIG. 4. Specificity of induction among SA analogs and other signalling compounds. Northern analysis of representative differential display genes following treatment of tobacco cells with 100 μM or 1 mM (left and right side of triangles, respectively) of the following chemicals for 2-2.5 hr: salicylic acid (SA, lanes 4 and 5), acetylSA (ASA, lanes 6 and 7), benzoic acid (BA, lanes 8 and 9), 4-hydroxybenzoic (4HBA, lanes 10 and 11), thiamine (thia, lanes 12 and 13), methyljasmonate (MJ, lanes 14 and 15), abscisic acid (ABA, lanes 16 and 17), or 2,4-dichlorophenoxyacetic acid (2,4-D, lanes 18 and 19). Control treatments are H2O (H, lane 1), 1% ethanol (E, solvent concentration in MJ treatments, lane 2), or 1% DMSO (D, solvent concentration in 2,4D treatments, lane 3). Blots were hybridized with ddPCR fragments indicated at right or with the β-ATPase geneas a loading control probe. Autoradiogram exposure times were optimized for each gene. The signal for C18-1 was enhanced by using the full length cDNA as probe. Labels on left indicate response class.
(§3) Differential display technology (Liang, P. and Pardee, A. B., Science 257: 967-971, 1992) was used to identify genes activated in the presence of SA, CHX and both. Therefore the absence or presence of SA, induction at 3 timepoints of SA-treatment, 2 different concentrations of SA and the effect of addition of CHX were measured. Seven treatments in total were performed. Treatment of tobacco BY-2 suspension cells and leaves and differential display PCR reactions were performed as described (Horvath and Chua (1996), Plant Mol. Biol. 31, 1061-1072).
(§4) The specificity for induction by SA was tested by treating tobacco cells with a range of SA analogs and plant signalling compounds at 0.1 and 1 mM for approximately 2.5 h. […] Among the SA-analogs, acetyl-SA (ASA, aspirin), benzoic acid (BA) and 4-hydroxybenzoic acid (4HBA), responses generally reflected the ability of the analog to substitute for SA in other cellular responses (Yalpani, N. et al., Plant Cell 3: 809-818, 1991, Yang, Y. and Klessig, D. F., Proc. Natl. Acad. Sci. 93, 14972-14977, 1996). […] Several genes, including those for proteinase inhibitors and lipoxygenase (Hildmann, T. et al., Plant Cell 4: 1157-1170, 1992; Melan, M. A. et al., Plant Physiol. 101: 441-450, 1993; Xu, D. et al., Plant Mol. Biol. 22: 573-588, 1993) are known to be under dual regulation by MJ and ABA. A similar mode of regulation may be in effect with C14-1b. the auxin 2,4-D induced several genes including C18-1/EREBP1 and C6-2.

C18-1/EREBP1 = assay: as above; details: 0.1 and 1 mM, approximately 2.5 h
Description: as §1, with “The signal for C18-1 was enhanced by using the full length cDNA as probe.” left out
as §2, with “The signal for C18-1 was enhanced by using the full length cDNA as probe.” left out
(§5) FIG. 5. Dose response of C18-1 and G8-1 to a range of chemicals. Northern analysis of tobacco cell cultures with eight concentrations of SA, ASA, BA, 4HBA, Thia, MJ, ABA, 2,4-D, or H2O for 2-2.5 hr. Concentrations were 0.1, 1, 3, 10, 30, 100, 300 μM or […], as indicated.
(§6) FIG. 6. […] Graphic representation of mRNA accumulation of G8-1 ( ), C18se -1 (♦), and IEGT (o) in response to a 2-2.5 hr incubation of cultured tobacco cells with a range of SA concentrations. RNA gel blots were quantitated by phosphorimaging analysis and normalized relative to the β-ATPase gene loading control (not shown).
as §3
The kinetics of induction were examined in detail through time course experiments for representative clones of each class (FIG. 2).
(§7) The specificity for induction by SA was tested by treating tobacco cells with a range of SA analogs and plant signalling compounds at 0.1 and 1 mM for approximately 2.5 h. […] Several genes, including those for proteinase inhibitors and lipoxygenase (Hildmann, T. et al., Plant Cell 4: 1157-1170, 1992; Melan, M. A. et al., Plant Physiol. 101: 441-450, 1993; Xu, D. et al., Plant Mol. Biol. 22: 573-588, 1993) are known to be under dual regulation by MJ and ABA.
A dose-response curve was made for SA. Therefore tobacco cells were treated with SA in a range of concentrations from 0.1 μM to 2 mM.

[1] = tested on: early SA-induced genes identified by differential display; assay: Northern analysis of differential display genes in cultured tobacco cells; details: 0.1 and 1 mM, approximately 2.5 h
Description: (§8) FIG. 1. […] Northern analysis of genes identified by differential display. Gel-purified DNA fragments produced by ddPCR were either used directly for random-primed labeling and probing of Northern filters (e.g. C7-1, C6-1, and G9-2) or first subcloned and released by restriction digest. Each lane contains 1 μg of poly(A) mRNA from cultured tobacco cells treated with (1) H2O, 4 hr; (2) 200 μM SA, 4 hr; (3) 71 μM CHX, 5 hr; (4) 71 μM CHX, 5 hr plus 200 μM SA after 1 hr (4 hr total); (5) 20 μM SA, 2 hr; (7) 200 μM SA, 8 hr.
as §2, with “The signal for C18-1 was enhanced by using the full length cDNA as probe.” left out
as §3, §7

G8-1 = assay: Northern analysis of mRNA accumulation in cultured tobacco cells; details: for G8-1 induction at 0.1 mM versus 1 mM: 0.1 and 1 mM, approximately 2.5 h
Description: as §8
as §1, with “The signal for C18-1 was enhanced by using the full length cDNA as probe.” left out
as §2, with “The signal for C18-1 was enhanced by using the full length cDNA as probe.” left out
as §5, §6, §3
The specificity for induction by SA was tested by treating tobacco cells with a range of SA analogs and plant signalling compounds at 0.1 and 1 mM for approximately 2.5 h.

G3-2 = assay: as above; details: 0.1 and 1 mM, approximately 2.5 h
Description: (§9) FIG. 1. Four classes of SA-induced early genes. Northern analysis of genes identified by differential display. Gel-purified DNA fragments produced by ddPCR were either used directly for random-primed labeling and probing of Northern filters (e.g. C7-1, C6-1, and G9-2) or first subcloned and released by restriction digest. Each lane contains 1 μg of poly(A) mRNA from cultured tobacco cells treated with (1) H2O, 4 hr; (2) 200 μM SA, 4 hr; (3) 71 μM CHX, 5 hr; (4) 71 μM CHX, 5 hr plus 200 μM SA after 1 hr (4 hr total); (5) 20 μM SA, 2 hr; (7) 200 μM SA, 8 hr. One blot was sequentially hybridized with the G1-1 fragment and the β-ATPase gene as a loading control probe. response classes (I-IV) are indicated on the left of the autoradiograms.
as §1, §2, §3, §4

C14-1b = assay: as above; details: 0.1 and 1 mM, approximately 2.5 h
Description: as §1, §2, §3, §4

class II genes = assay: Northern analysis of poly(A) mRNA from treated tobacco cells; details: SA at 2, 4, 8 h; 71 μM CHX 5 hrs; CHX + 200 μM SA
Description: as §9, §3
(§10) Fiftytwo were recovered for testing on poly(A)+Northern blots loaded with mRNA derived from cells from each of the treatments.

[2] = tested on: class IV genes (G3-2 and C14-1b); assay: as above
Description: as §9, §3, §10

Class I genes = assay: as above; details: SA at 2, 4 or 8 h; 71 μM CHX 5 hrs; CHX + 200 μM SA
Description: as §9, §3, §10

[3] = 71 μM CHX 5 hrs + 200 μM SA after 1 hr
[4] = SA at 2, 4, 8 h, 71 μM CHX 5 hrs

O=C(O)c1ccccc1 [BA, benzoic acid]
C6-2 induction at 0.1 mM versus 1 mM (C6-2): greater induction at 1mM | C18-1/EREBP1 induction at 0.1 mM versus 1 mM (C18-1/EREBP1): greater induction at 1mM | induction of the genes tested [1]: also induced the expression | G8-1 induction at 0.1 mM versus 1 mM (G8-1): equal or greater induction at 0.1 mM versus 1 mM | G3-2 induction at 0.1 mM versus 1 mM (G3-2): equal or greater induction at 0.1 mM versus 1 mM

CC/C=C\CC1C(=O)CCC1CC(=O)OC (centres unmarked) [MJ, Methyljasmonate]
effectiveness as inducer of C14-1b among compounds tested (C14-1b): most effective inducer | induction of C14-1b (C14-1b): able to induce expression | effectiveness as inducer of C18-1/EREBP1 among compounds tested (C18-1/EREBP1): most effective inducer | induction of C18-1/EREBP1 (C18-1/EREBP1): able to induce expression | induction of G3-2 (G3-2): able to induce expression

C[C@@H]1C[C@@H]([C@H](O)CC2CC(=O)NC(=O)C2)C(=O)[C@@H](C)C1 [CHX, cycloheximide]
mRNA induction of class II genes (class II genes): also induced expression | effect of CHX on induction of class IV genes by SA [2, 3]: blocked the induction | mRNA induction of class IV genes [2, 4]: fail to induce | mRNA induction of Class I genes (Class I genes): some induction | effect of presence of CHX on induction of G8-1 by SA (G8-1; [3]): did not significantly alter | mRNA induction of G8-1 (class III) (G8-1; [4]): did not induce

CC(=O)Oc1ccccc1C(=O)O [ASA, acetyl-SA]
C6-2 induction at 0.1 mM versus 1 mM (C6-2): greater induction at 1mM | C18-1/EREBP1 induction at 0.1 mM versus 1 mM (C18-1/EREBP1): greater induction at 1mM | induction of the genes tested [1]: induced all genes to similar levels as SA | G8-1 induction at 0.1 mM versus 1 mM (G8-1): equal or greater induction at 0.1 mM versus 1 mM | G3-2 induction at 0.1 mM versus 1 mM (G3-2): equal or greater induction at 0.1 mM versus 1 mM

O=C(O)c1ccc(O)cc1 [4HBA, 4-hydroxybenzoic acid]
induction of the genes tested [1]: failed to induce all genes but C6-2

Cc1ncc(C[n+]2csc(CCO)c2C)c(N)n1 [thiamine]
induction of the genes tested [1]: did not produce a response from any of the genes tested

O=C(O)COc1ccc(Cl)cc1Cl [2,4-D, 2,4-dichlorophenoxyacetic acid]
induction of C6-2 (C6-2): induced | induction of C18-1/EREBP1 (C18-1/EREBP1): induced

CC1=CC(=O)CC(C)(C)[C@@]1(O)/C=C/C(C)=C\C(=O)O [ABA, abscisic acid]
induction of C14-1b (C14-1b): could be induced
